The values below are quoted from earlier work in US12233048B2 (Société des Produits Nestlé S.A., priority 2022, dated 2025).

In the case of `COc1ccc2[nH]cc(CCNC(C)=O)c2c1` [melatonin, N-acetyl-5-methoxytryptamine], the “time after ingestion for blood plasma concentration to reach its peak” value (after ingestion) was “more than 30 minutes”. Further, the bioavailability result (exogenous melatonin) was “poor and highly variable”.
